Assay results as given in PubChem BioAssay (NCI).
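Test compounds were applied to cells in 96-well plates for 48 hours at 5 doses. TGI: concentration producing complete growth inhibition.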

Legend:
Assay in all cases: NCI anticancer screen, dose series, 48 h
SW-620 colon = test system: SW-620 colon
HCT-15 colon = test system: HCT-15 colon
OVCAR-4 ovarian = test system: OVCAR-4 ovarian
OVCAR-3 ovarian = test system: OVCAR-3 ovarian
BT-549 breast = test system: BT-549 breast
OVCAR-5 ovarian = test system: OVCAR-5 ovarian
ACHN renal = test system: ACHN renal
NCI-H522 lung = test system: NCI-H522 lung
SNB-19 CNS = test system: SNB-19 CNS
M14 melanoma = test system: M14 melanoma
U251 CNS = test system: U251 CNS
CCRF-CEM leukemia = test system: CCRF-CEM leukemia
HCT-116 colon = test system: HCT-116 colon
A549 NSCLC = test system: A549 NSCLC
PC-3 prostate = test system: PC-3 prostate
HCC-2998 colon = test system: HCC-2998 colon
IGROV1 ovarian = test system: IGROV1 ovarian
UO-31 renal = test system: UO-31 renal
RPMI-8226 leukemia = test system: RPMI-8226 leukemia
MDA-MB-231 breast = test system: MDA-MB-231 breast
K-562 leukemia = test system: K-562 leukemia
MALME-3M melanoma = test system: MALME-3M melanoma
SR leukemia = test system: SR leukemia
MOLT-4 leukemia = test system: MOLT-4 leukemia
MDA-N = test system: MDA-N
SK-MEL-5 melanoma = test system: SK-MEL-5 melanoma
786-0 renal = test system: 786-0 renal
HL-60(TB) leukemia = test system: HL-60(TB) leukemia
UACC-257 melanoma = test system: UACC-257 melanoma
LOX IMVI melanoma = test system: LOX IMVI melanoma
A498 renal = test system: A498 renal
UACC-62 melanoma = test system: UACC-62 melanoma
NCI-H226 lung = test system: NCI-H226 lung
NCI-H23 lung = test system: NCI-H23 lung
MDA-MB-435 = test system: MDA-MB-435
SK-MEL-28 melanoma = test system: SK-MEL-28 melanoma
SNB-75 CNS = test system: SNB-75 CNS
T-47D breast = test system: T-47D breast
TK-10 renal = test system: TK-10 renal
OVCAR-8 ovarian = test system: OVCAR-8 ovarian
SK-MEL-2 melanoma = test system: SK-MEL-2 melanoma
HT29 colon = test system: HT29 colon
HOP-62 NSCLC = test system: HOP-62 NSCLC
SF-268 CNS = test system: SF-268 CNS
NCI-H460 lung = test system: NCI-H460 lung
DU-145 prostate = test system: DU-145 prostate
SN12C renal = test system: SN12C renal
NCI/ADR-RES ovarian = test system: NCI/ADR-RES ovarian
SK-OV-3 ovarian = test system: SK-OV-3 ovarian
HS 578T breast = test system: HS 578T breast
EKVX NSCLC = test system: EKVX NSCLC
SF-539 CNS = test system: SF-539 CNS
CAKI-1 renal = test system: CAKI-1 renal
KM12 colon = test system: KM12 colon
MCF7 breast = test system: MCF7 breast
RXF 393 renal = test system: RXF 393 renal
COLO 205 colon = test system: COLO 205 colon
HOP-92 NSCLC = test system: HOP-92 NSCLC
SF-295 CNS = test system: SF-295 CNS

Q: For `Cc1c(Cl)cccc1N=NC(=O)NNc1cccc(Cl)c1C`, which TGI (SW-620 colon) is on record?
A: 30.8 µM

Q: What about the TGI (HCT-15 colon) of the same molecule?
A: 30 µM

Q: What about the TGI (OVCAR-4 ovarian) of the same molecule?
A: 25.9 µM

Q: And the TGI (OVCAR-3 ovarian)?
A: 31.4 µM

Q: What about the TGI (BT-549 breast) of the same molecule?
A: 27.7 µM

Q: What about the TGI (OVCAR-5 ovarian) of the same molecule?
A: 27.1 µM

Q: And the TGI (ACHN renal)?
A: 45.3 µM

Q: And the TGI (NCI-H522 lung)?
A: 39.8 µM

Q: And the TGI (SNB-19 CNS)?
A: 41.9 µM

Q: And the TGI (M14 melanoma)?
A: 35.7 µM

Q: And the TGI (U251 CNS)?
A: 29.7 µM

Q: What about the TGI (CCRF-CEM leukemia) of the same molecule?
A: 42.6 µM

Q: And the TGI (HCT-116 colon)?
A: 28.6 µM

Q: What about the TGI (A549 NSCLC) of the same molecule?
A: 45.2 µM

Q: What about the TGI (PC-3 prostate) of the same molecule?
A: 26.1 µM

Q: And the TGI (HCC-2998 colon)?
A: 31.1 µM

Q: What about the TGI (IGROV1 ovarian) of the same molecule?
A: 19.6 µM

Q: And the TGI (UO-31 renal)?
A: 26.3 µM

Q: What about the TGI (RPMI-8226 leukemia) of the same molecule?
A: > 100 µM

Q: What about the TGI (MDA-MB-231 breast) of the same molecule?
A: 37.1 µM

Q: And the TGI (K-562 leukemia)?
A: 40.5 µM

Q: What about the TGI (MALME-3M melanoma) of the same molecule?
A: 30.8 µM

Q: And the TGI (SR leukemia)?
A: 95 µM

Q: What about the TGI (MOLT-4 leukemia) of the same molecule?
A: 46.7 µM

Q: What about the TGI (MDA-N) of the same molecule?
A: 31 µM

Q: What about the TGI (SK-MEL-5 melanoma) of the same molecule?
A: 28.6 µM

Q: What about the TGI (786-0 renal) of the same molecule?
A: 37.7 µM

Q: And the TGI (HL-60(TB) leukemia)?
A: 38.1 µM

Q: What about the TGI (UACC-257 melanoma) of the same molecule?
A: 42.1 µM

Q: What about the TGI (LOX IMVI melanoma) of the same molecule?
A: 35.7 µM

Q: What about the TGI (A498 renal) of the same molecule?
A: 27.7 µM

Q: What about the TGI (UACC-62 melanoma) of the same molecule?
A: 25.5 µM

Q: What about the TGI (NCI-H226 lung) of the same molecule?
A: 32.6 µM

Q: What about the TGI (NCI-H23 lung) of the same molecule?
A: 33.2 µM

Q: What about the TGI (MDA-MB-435) of the same molecule?
A: 34.5 µM

Q: And the TGI (SK-MEL-28 melanoma)?
A: 30.1 µM

Q: What about the TGI (SNB-75 CNS) of the same molecule?
A: 32.5 µM

Q: And the TGI (T-47D breast)?
A: 24.2 µM

Q: What about the TGI (TK-10 renal) of the same molecule?
A: 29.6 µM

Q: What about the TGI (OVCAR-8 ovarian) of the same molecule?
A: 26.6 µM

Q: What about the TGI (SK-MEL-2 melanoma) of the same molecule?
A: 26.4 µM

Q: And the TGI (HT29 colon)?
A: 35.3 µM

Q: What about the TGI (HOP-62 NSCLC) of the same molecule?
A: 25.4 µM

Q: What about the TGI (SF-268 CNS) of the same molecule?
A: 31.8 µM

Q: What about the TGI (NCI-H460 lung) of the same molecule?
A: 31.2 µM

Q: What about the TGI (DU-145 prostate) of the same molecule?
A: 28.3 µM

Q: What about the TGI (SN12C renal) of the same molecule?
A: 32.4 µM

Q: `CCCCc1ccc(Nc2nc(Cl)c3ccn(C4CC(Oc5ccc(C)cc5)C(COc5ccc(C)cc5)O4)c3n2)cc1` (stereo not given) was tested. Which TGI (NCI/ADR-RES ovarian) did it give?
A: > 46.4 µM

Q: What about the TGI (SW-620 colon) of the same molecule?
A: > 46.4 µM

Q: What about the TGI (HCT-15 colon) of the same molecule?
A: > 46.4 µM

Q: What about the TGI (OVCAR-4 ovarian) of the same molecule?
A: > 31.6 µM

Q: What about the TGI (OVCAR-3 ovarian) of the same molecule?
A: > 100 µM

Q: What about the TGI (SK-OV-3 ovarian) of the same molecule?
A: > 46.4 µM

Q: What about the TGI (BT-549 breast) of the same molecule?
A: 17.3 µM

Q: And the TGI (OVCAR-5 ovarian)?
A: > 31.6 µM

Q: And the TGI (ACHN renal)?
A: 31.4 µM

Q: What about the TGI (HS 578T breast) of the same molecule?
A: > 100 µM

Q: What about the TGI (NCI-H522 lung) of the same molecule?
A: 30.7 µM

Q: And the TGI (SNB-19 CNS)?
A: 31.8 µM

Q: And the TGI (M14 melanoma)?
A: > 46.4 µM

Q: What about the TGI (U251 CNS) of the same molecule?
A: > 46.4 µM

Q: And the TGI (EKVX NSCLC)?
A: 38 µM

Q: What about the TGI (CCRF-CEM leukemia) of the same molecule?
A: > 46.4 µM

Q: What about the TGI (HCT-116 colon) of the same molecule?
A: > 46.4 µM

Q: And the TGI (SF-539 CNS)?
A: > 46.4 µM

Q: What about the TGI (A549 NSCLC) of the same molecule?
A: > 46.4 µM

Q: What about the TGI (PC-3 prostate) of the same molecule?
A: > 100 µM

Q: And the TGI (HCC-2998 colon)?
A: > 46.4 µM

Q: What about the TGI (IGROV1 ovarian) of the same molecule?
A: 29.5 µM

Q: And the TGI (UO-31 renal)?
A: 31.2 µM

Q: What about the TGI (RPMI-8226 leukemia) of the same molecule?
A: > 46.4 µM

Q: What about the TGI (MDA-MB-231 breast) of the same molecule?
A: > 46.4 µM

Q: And the TGI (K-562 leukemia)?
A: > 46.4 µM

Q: And the TGI (MALME-3M melanoma)?
A: 32.9 µM

Q: And the TGI (MOLT-4 leukemia)?
A: > 46.4 µM

Q: And the TGI (MDA-N)?
A: > 46.4 µM

Q: What about the TGI (SK-MEL-5 melanoma) of the same molecule?
A: > 46.4 µM

Q: And the TGI (CAKI-1 renal)?
A: > 46.4 µM

Q: What about the TGI (786-0 renal) of the same molecule?
A: > 46.4 µM

Q: And the TGI (HL-60(TB) leukemia)?
A: > 46.4 µM

Q: What about the TGI (UACC-257 melanoma) of the same molecule?
A: 31.5 µM

Q: What about the TGI (LOX IMVI melanoma) of the same molecule?
A: > 46.4 µM

Q: What about the TGI (A498 renal) of the same molecule?
A: > 46.4 µM

Q: And the TGI (UACC-62 melanoma)?
A: 30.6 µM

Q: And the TGI (NCI-H226 lung)?
A: > 46.4 µM

Q: And the TGI (NCI-H23 lung)?
A: 30.8 µM

Q: And the TGI (MDA-MB-435)?
A: > 46.4 µM

Q: And the TGI (SK-MEL-28 melanoma)?
A: > 100 µM

Q: And the TGI (SNB-75 CNS)?
A: > 100 µM

Q: And the TGI (KM12 colon)?
A: > 46.4 µM

Q: And the TGI (MCF7 breast)?
A: > 46.4 µM

Q: What about the TGI (T-47D breast) of the same molecule?
A: > 46.4 µM

Q: And the TGI (RXF 393 renal)?
A: > 46.4 µM

Q: What about the TGI (TK-10 renal) of the same molecule?
A: 43.4 µM

Q: What about the TGI (OVCAR-8 ovarian) of the same molecule?
A: > 46.4 µM

Q: What about the TGI (SK-MEL-2 melanoma) of the same molecule?
A: > 46.4 µM

Q: What about the TGI (COLO 205 colon) of the same molecule?
A: > 46.4 µM

Q: What about the TGI (HT29 colon) of the same molecule?
A: > 46.4 µM

Q: And the TGI (HOP-62 NSCLC)?
A: > 100 µM

Q: What about the TGI (SF-268 CNS) of the same molecule?
A: > 100 µM

Q: And the TGI (NCI-H460 lung)?
A: > 31.6 µM

Q: What about the TGI (DU-145 prostate) of the same molecule?
A: > 46.4 µM

Q: What about the TGI (SN12C renal) of the same molecule?
A: > 46.4 µM

Q: And the TGI (HOP-92 NSCLC)?
A: > 46.4 µM

Q: And the TGI (SF-295 CNS)?
A: > 46.4 µM
